A word on the pIC50: it is the negative decadic logarithm of the IC50, by convention in mol/L. In general, melting point refers to the temperature of the solid-liquid transition.

pIC50: −log10 of the molar value. Structures can show the parent of a compound that is named as a salt.

One data set concerns the target T1, recombinant caspase 3 (Homo sapiens, UniProt P42574).
T1 construct: His tag (C); made in house; host or cells: E. coli
T1 sequence (P42574 29-175 limits assumed): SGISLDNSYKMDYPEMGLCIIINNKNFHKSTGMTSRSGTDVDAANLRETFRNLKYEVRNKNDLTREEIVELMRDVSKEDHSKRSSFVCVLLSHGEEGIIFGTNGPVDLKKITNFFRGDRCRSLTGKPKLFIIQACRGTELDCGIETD
T1 sequence (P42574 176-277 limits assumed): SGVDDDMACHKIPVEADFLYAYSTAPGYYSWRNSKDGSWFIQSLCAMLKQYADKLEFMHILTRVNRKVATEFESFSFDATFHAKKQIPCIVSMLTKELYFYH
Put plainly: Caspase 3 Inhibition Assay (Ac-DEVD-AFC fluorogenic substrate cleavage). In kind it is biochemical. To be noted: recombinant caspase 3 0.25 nM, Ac-DEVD-AFC 25 μM, pH 7.2, 23° C. The procedure:
Caspase 3 was expressed intracellularly in E. coli with a c-terminal His tag. Fermentation was performed at 25° C. in a B. Braun Biotech Biostat C 10 liter bioreactor vessel. The culture was collected in IL bottles and centrifuged in Komspin KA-7.1000 rotors at approximately 8000 RCF (Relative Centrifugal Force). The cell pellets were re-suspended in 20 mM Tris pH 8.0, 500 mM NaCl, and 5 mM imidazole. The cell suspension was disrupted by passing 5 times through a microfluidizer Model 110Y (Microfluidics Corp, Newton, Mass). After centrifugation (13 kg, 30 min at 4 C), the supernatant was applied to a column of Nickle-NTA agarose. The Caspase 3 was eluted with a gradient of 5 mM to 150 mM imidazole in the above buffer. Fractions containing Caspase 3 were pooled and concentrated with a Millipore Ultrafree filtration device. The concentrated Caspase 3 solution was loaded unto a TSK gel G3000sw column (Tosoh Bioseph LLC), equilibrated with a buffer of 20 mM PIPES pH 7.2, 100 mM NaCl, 1 mM EDTA & 5 mM Cysteine. Fractions containing Caspase 3 were pooled and concentrated. Sometimes CHAPS was added to 0.1% and sucrose to 10% into the protein sample.
Caspase 3 was assayed at 23° C. (room temp) in 96-well plates using the internally quenched tetrapeptide substrate N-acetyl-aspartyl-glutamyl-valyl-aspartate-7-amino-4-trifluoromethyl coumarin (Ac-DEVD-AFC purchased from Biomol). The assays are conducted at pH 7.2 in a buffered system containing 20 mM PIPES, 100 mM NaCl, 1 mM EDTA, 0.1% CHAPS, 10% sucrose and 5 mM L-cysteine. […] A steady state rate of substrate cleavage is obtained for analysis.
The progress curves generated were fitted by computer to equation 1 to generate an IC50 value. Equation 1: y=Bmax*(1−(x^n/(K^n+x^n))), where Bmax is rate in the absence of inhibitor.
In the case of `CC1(C)CN=C2C(=O)c3cc(C(=O)NC4CCCC4)ccc3N2C1` [Example 77, N-Cyclopentyl-3,3-dimethyl-10-oxo-2,3,4,10-tetrahydropyrimido[1,2-a]indole-8-carboxamide], the negative logarithm of the IC50 (pIC50) is 4.46.

Consider `COC[C@@H]1CCCN1S(=O)(=O)c1ccc2c(c1)C(=O)C1=NCC3(CCCCCC3)CN12` [85/86, 8′-{[(2S)-2-(methoxymethyl)pyrrolidin-1-yl]sulfonyl}spiro[cycloheptane-1,3′-pyrimido[1,2-a]indol]-10′(2′H)-one], for which the pIC50 is 7.35.

`Cc1ccc(OC[C@@H]2CCCN2S(=O)(=O)c2ccc3c(c2)C(=O)C2=NCC(C)(C)CN23)cn1` [Example 44, 3,3-Dimethyl-8-[((2S)-2-{[(6-methylpyridin-3-yl)oxy]methyl}pyrrolidin-1-yl)sulfonyl]-3,4-dihydropyrimido[1,2-a]indol-10(2H)-one]: the negative logarithm of the IC50 (pIC50) was 7.72.

For `CC1(C)CN=C2C(=O)c3cc(S(=O)(=O)N4CCC[C@H]4COc4ccc(C(F)(F)F)cn4)ccc3N2C1` [Example 42, 3,3-Dimethyl-8-{[(2S)-2-({[5-(trifluoromethyl)pyridin-2-yl]oxy}methyl)pyrrolidin-1-yl]sulfonyl}-3,4-dihydropyrimido[1,2-a]indol-10(2H)-one], the negative logarithm of the IC50 (pIC50) was 7.85.

Tested on in another data set: not given
Test: not given
Conditions: not given
Molecule `COc1ccc2c(c1)C(=O)C1=NCCCN12` (hydrate or solvate) [Example 11, 8-Methoxy-3,4-dihydropyrimido[1,2-a]indol-10(2H)-one] came in with a melting point of 152 °C.

Turning to `O=C(Nc1ccc2c(c1)C(=O)C1=NCCCN12)c1ccccc1` (as salt: trifluoroacetic acid salt) [Example 17, N-(10-Oxo-2,3,4,10-tetrahydropyrimido[1,2-a]indol-8-yl)benzamide trifluoroacetic acid salt], the melting point fell in the range of 155 to 168 °C.

Consider `CC1(C)CN=C2C(=O)c3cc(S(=O)(=O)N4CCC[C@H]4COc4ccccc4)ccc3N2C1`, for which the melting point is 73 to 88 °C (dec.).

`CC1(C)CN=C2C(=O)c3cc(Cl)ccc3N2C1` (hydrate or solvate) [Example 14, 8′-Chloro-3′,3′-dimethyl-3′,4′-dihydropyrimido[1,2-a]indol-10(2H)-one] had a melting point of 153 to 154 °C.

Regarding `O=C1C2=NCCCN2c2ccc(S(=O)(=O)N3CCC[C@H]3COc3ccccc3)cc21` [Example 3], the melting point was in the range of 159 to 160 °C.

As for `O=C1C2=NCCCN2c2cc(Cl)c([N+](=O)[O-])cc21` (hydrate or solvate) [Example 15, 7-Chloro-8-nitro-3,4-dihydropyrimido[1,2-a]indol-10(2H)-one], the melting point is 152 to 165 °C.

Take `COC[C@H]1CCCN1S(=O)(=O)c1ccc2c(c1)C(=O)C1=NCC(C)(C)CN12`: the melting point lay in the range of 161 to 164 °C.

`COC[C@@H]1CCCN1S(=O)(=O)c1cc2c(cc1Cl)N1CCCN=C1C2=O` (hydrate or solvate) [Example 5, 7-Chloro-8-{[(2S)-2-(methoxymethyl)pyrrolidin-1-yl-]sulfonyl}-3,4-dihydropyrimido[1,2-a]indol-10(2H)-one] had a melting point of 127 to 130 °C.

With `Nc1cc2c(cc1Cl)N1CCCN=C1C2=O` [Example 16, 8-Amino-7-chloro-3,4-dihydropyrimido[1,2-a]indol-10(2H)-one], the melting point was over 270 °C.

With `Cc1ccc2c(c1)C(=O)C1=NCCCN12` (hydrate or solvate) [Example 10, 8-Methyl-3,4-dihydropyrimido[1,2-a]indol-10(2H)-one], the melting point lay in the range of 163 to 164 °C.

`CC1(C)CN=C2C(=O)c3cc(C#N)ccc3N2C1` (hydrate or solvate) [Example 20, 3,3-Dimethyl-10-oxo-2,3,4,10-tetrahydropyrimido[1,2-a]indole-8-carbonitrile] registered a melting point of 178 to 184 °C.

`COC[C@@H]1CCCN1S(=O)(=O)c1ccc2c(c1)C(=O)C1=NCC(C)(C)CN12`: the melting point fell in the range of 163 to 165 °C.

For the molecule `COC[C@@H]1CCCN1S(=O)(=O)c1ccc2c(c1)C(=O)C1=NCC3(CCCC3)CN12`, the melting point was 171.2 to 171.9 °C.

These data come from patent US7256198B2, “Pyrimidoindolones and methods for using same” (Wyeth, priority 2004, dated 2007).
